From paper PMC5218480 (PLoS ONE, 2017)

Tested on: MV-4-11 cells
Assay: Gene expression microarray analysis (Affymetrix PrimeView) and GSEA
Type: cell-based, human
Parameters: RFU PODN (11730768_x_at) / Fold change /veh PODN (11730768_x_at) / RFU LINC00158 (11744669_a_at) / Fold change /veh LINC00158 (11744669_a_at) / RFU DUSP10 (11751237_a_at) / Fold change /veh DUSP10 (11751237_a_at) / RFU ID3 (11757404_x_at) / Fold change /veh ID3 (11757404_x_at) / RFU PLEKHG5 (11737974_s_at) / Fold change /veh PLEKHG5 (11737974_s_at) / RFU LRRC4B (11730491_at) / Fold change /veh LRRC4B (11730491_at) / RFU GIMAP4 (11747438_a_at) / Fold change /veh GIMAP4 (11747438_a_at) / RFU KRT8 (11758183_x_at) / Fold change /veh KRT8 (11758183_x_at) / RFU CNN1 (11734310_a_at) / Fold change /veh CNN1 (11734310_a_at) / RFU VPS37D (11726825_at) / Fold change /veh VPS37D (11726825_at) / RFU C10orf10 (11716522_x_at) / Fold change /veh C10orf10 (11716522_x_at) / RFU KIR2DL2 /// KIR2DL4 /// KIR2DL5A /// KIR2DL5B /// KIR2DS1 /// KIR2DS2 /// KIR2DS3 /// KIR2DS4 /// KIR3DL3 /// KIR3DL3 /// KIR3DS1 (11738374_at) / Fold change /veh KIR2DL2 /// KIR2DL4 /// KIR2DL5A /// KIR2DL5B /// KIR2DS1 /// KIR2DS2 /// KIR2DS3 /// KIR2DS4 /// KIR3DL3 /// KIR3DL3 /// KIR3DS1 (11738374_at) / RFU C1QL1 (11718748_at) / Fold change /veh C1QL1 (11718748_at) / RFU TMPRSS4 (11747572_a_at) / Fold change /veh TMPRSS4 (11747572_a_at) / RFU HAMP (11756126_x_at) / Fold change /veh HAMP (11756126_x_at) / RFU RNFT2 (11725882_a_at) / Fold change /veh RNFT2 (11725882_a_at) / RFU NR4A2 (11747474_a_at) / Fold change /veh NR4A2 (11747474_a_at) / RFU ABCC12 (11746883_a_at) / Fold change /veh ABCC12 (11746883_a_at) / RFU TMEM136 (11760407_x_at) / Fold change /veh TMEM136 (11760407_x_at) / RFU CLDN22 /// WWC2 (11732394_at) / Fold change /veh CLDN22 /// WWC2 (11732394_at) / RFU HLA-DPB1 (11760878_x_at) / Fold change /veh HLA-DPB1 (11760878_x_at) / RFU SPINT1 (11716480_a_at) / Fold change /veh SPINT1 (11716480_a_at) / RFU GAP43 (11754022_s_at) / Fold change /veh GAP43 (11754022_s_at) / RFU A4GNT (11735810_at) / Fold change /veh A4GNT (11735810_at) / RFU PRB3 (11715151_x_at) / Fold change /veh PRB3 (11715151_x_at) / RFU TUBB4B (11761932_at) / Fold change /veh TUBB4B (11761932_at) / RFU CAPN14 (11732068_a_at) / Fold change /veh CAPN14 (11732068_a_at) / RFU TMCC2 (11721928_a_at) / Fold change /veh TMCC2 (11721928_a_at) / RFU IRGQ (11745062_a_at) / Fold change /veh IRGQ (11745062_a_at) / RFU FAM174B (11720279_a_at) / Fold change /veh FAM174B (11720279_a_at) / RFU TMPRSS4 (11748680_a_at) / Fold change /veh TMPRSS4 (11748680_a_at) / RFU FAM212B (11763350_a_at) / Fold change /veh FAM212B (11763350_a_at) / RFU PLEKHG5 (11743358_a_at) / Fold change /veh PLEKHG5 (11743358_a_at) / RFU ZSCAN30 (11745921_a_at) / Fold change /veh ZSCAN30 (11745921_a_at) / RFU CMKLR1 (11741424_a_at) / Fold change /veh CMKLR1 (11741424_a_at) / RFU LOC101060620 /// MAPK8IP1 (11723275_at) / Fold change /veh LOC101060620 /// MAPK8IP1 (11723275_at) / RFU SPTSSB (11747773_x_at) / Fold change /veh SPTSSB (11747773_x_at) / RFU PRSS12 (11739890_at) / Fold change /veh PRSS12 (11739890_at) / RFU BIN1 (11741810_x_at) / Fold change /veh BIN1 (11741810_x_at) / RFU WNT11 (11732464_a_at) / Fold change /veh WNT11 (11732464_a_at) / RFU C10orf10 (11716521_a_at) / Fold change /veh C10orf10 (11716521_a_at) / RFU C5orf56 (11738089_at) / Fold change /veh C5orf56 (11738089_at) / RFU CYB561 (11721691_x_at) / Fold change /veh CYB561 (11721691_x_at) / RFU ANKRD19P (11752326_a_at) / Fold change /veh ANKRD19P (11752326_a_at) / RFU OR2T12 /// OR2T33 /// OR2T8 (11738714_s_at) / Fold change /veh OR2T12 /// OR2T33 /// OR2T8 (11738714_s_at) / RFU VCAN (11748164_a_at) / Fold change /veh VCAN (11748164_a_at) / RFU JSRP1 (11732532_at) / Fold change /veh JSRP1 (11732532_at) / RFU KRTAP10-11 (11738290_x_at) / Fold change /veh KRTAP10-11 (11738290_x_at) / RFU MYO3A (11730013_a_at) / Fold change /veh MYO3A (11730013_a_at) / RFU EBF3 (11725865_a_at) / Fold change /veh EBF3 (11725865_a_at) / RFU CAMK2N1 (11719241_x_at) / Fold change /veh CAMK2N1 (11719241_x_at) / RFU C5orf56 (11738088_a_at) / Fold change /veh C5orf56 (11738088_a_at) / RFU OLFML3 (11715873_a_at) / Fold change /veh OLFML3 (11715873_a_at) / RFU LOC100653217 /// NTM (11731650_a_at) / Fold change /veh LOC100653217 /// NTM (11731650_a_at) / RFU MAPK11 (11762145_a_at) / Fold change /veh MAPK11 (11762145_a_at) / RFU FIZ1 (11724087_x_at) / Fold change /veh FIZ1 (11724087_x_at) / RFU OASL (11726364_x_at) / Fold change /veh OASL (11726364_x_at) / RFU SOX15 (11748057_x_at) / Fold change /veh SOX15 (11748057_x_at) / RFU CD79A (11719716_a_at) / Fold change /veh CD79A (11719716_a_at) / RFU HIST1H1D (11736915_at) / Fold change /veh HIST1H1D (11736915_at) / RFU CASKIN2 (11723855_a_at) / Fold change /veh CASKIN2 (11723855_a_at) / RFU LOC730098 (11760151_x_at) / Fold change /veh LOC730098 (11760151_x_at) / RFU OR4N2 (11742367_at) / Fold change /veh OR4N2 (11742367_at) / RFU PRRT2 (11749266_a_at) / Fold change /veh PRRT2 (11749266_a_at) / RFU SNX32 (11753110_a_at) / Fold change /veh SNX32 (11753110_a_at) / RFU CDHR5 (11726645_a_at) / Fold change /veh CDHR5 (11726645_a_at) / RFU RCAN1 (11760418_a_at) / Fold change /veh RCAN1 (11760418_a_at) / RFU FAM167A (11723789_a_at) / Fold change /veh FAM167A (11723789_a_at) / RFU FAM26E (11764081_at) / Fold change /veh FAM26E (11764081_at) / RFU ISYNA1 (11749810_s_at) / Fold change /veh ISYNA1 (11749810_s_at) / RFU ACY1 (11761880_at) / Fold change /veh ACY1 (11761880_at) / RFU 11764098_at / Fold change /veh 11764098_at / RFU SAMD14 (11745864_x_at) / Fold change /veh SAMD14 (11745864_x_at) / RFU NPB (11741838_a_at) / Fold change /veh NPB (11741838_a_at) / RFU TMPRSS6 (11731388_a_at) / Fold change /veh TMPRSS6 (11731388_a_at) / RFU KRTAP10-2 (11738614_at) / Fold change /veh KRTAP10-2 (11738614_at) / RFU ARHGAP8 /// PRR5-ARHGAP8 (11727945_x_at) / Fold change /veh ARHGAP8 /// PRR5-ARHGAP8 (11727945_x_at) / RFU KRTAP5-7 /// NADSYN1 (11734609_at) / Fold change /veh KRTAP5-7 /// NADSYN1 (11734609_at) / RFU RASL12 (11751679_a_at) / Fold change /veh RASL12 (11751679_a_at) / RFU CDKN2B (11736163_a_at) / Fold change /veh CDKN2B (11736163_a_at) / RFU PRF1 (11729649_at) / Fold change /veh PRF1 (11729649_at) / RFU, ZNF638 /// ZNF638-IT1 / Fold change vs veh, ZNF638 /// ZNF638-IT1 / RFU, PANK3 / Fold change vs veh, PANK3 / RFU, SH3YL1 / Fold change vs veh, SH3YL1 / RFU, ZEB2 / Fold change vs veh, ZEB2 / RFU, NRIP1 / Fold change vs veh, NRIP1 / RFU, PTTG1IP / Fold change vs veh, PTTG1IP / RFU, CAPN2 / Fold change vs veh, CAPN2 / RFU, MED14 / Fold change vs veh, MED14 / RFU, SNORA58 / Fold change vs veh, SNORA58 / RFU, C1orf63 / Fold change vs veh, C1orf63 / RFU, LRRFIP1 / Fold change vs veh, LRRFIP1 / RFU, NDUFAF7 / Fold change vs veh, NDUFAF7 / RFU, SLC12A2 / Fold change vs veh, SLC12A2 / RFU, IBTK / Fold change vs veh, IBTK / RFU, ESF1 / Fold change vs veh, ESF1 / Fold change vs veh, TMEM50B / RFU, TAOK1 / Fold change vs veh, TAOK1 / RFU, ACBD3 / Fold change vs veh, ACBD3 / RFU, TMA16 / Fold change vs veh, TMA16 / RFU, RWDD3 / Fold change vs veh, RWDD3 / RFU, BCAT1 / Fold change vs veh, BCAT1 / RFU, EDEM3 / Fold change vs veh, EDEM3 / RFU, TMEM33 / Fold change vs veh, TMEM33 / RFU, WDR75 / Fold change vs veh, WDR75 / RFU, AHCTF1 / Fold change vs veh, AHCTF1 / RFU, TFRC / Fold change vs veh, TFRC / RFU, ZDHHC17 / Fold change vs veh, ZDHHC17 / RFU, NOM1 / Fold change vs veh, NOM1 / RFU, ARL8B / Fold change vs veh, ARL8B / RFU, ZBTB11 / Fold change vs veh, ZBTB11 / RFU, TAMM41 / Fold change vs veh, TAMM41 / RFU, KIAA1704 /// LOC100996395 / Fold change vs veh, KIAA1704 /// LOC100996395 / RFU, ING1 / Fold change vs veh, ING1 / RFU, TRMT61B / Fold change vs veh, TRMT61B / RFU, FUBP3 / Fold change vs veh, FUBP3 / RFU, TP53 / Fold change vs veh, TP53 / RFU, TNKS2 / Fold change vs veh, TNKS2 / RFU, ZFP14 / Fold change vs veh, ZFP14 / RFU, ACTR2 / Fold change vs veh, ACTR2 / RFU, PPP3R1 / Fold change vs veh, PPP3R1 / RFU, PIK3R1 / Fold change vs veh, PIK3R1 / RFU, HNRNPA1 / Fold change vs veh, HNRNPA1 / RFU, RNF170 / Fold change vs veh, RNF170 / RFU, ZNF28 / Fold change vs veh, ZNF28 / RFU, RNGTT / Fold change vs veh, RNGTT / RFU, OGT / Fold change vs veh, OGT / RFU, BRD1 / Fold change vs veh, BRD1 / RFU, MARS / Fold change vs veh, MARS / RFU, ZNF655 / Fold change vs veh, ZNF655 / RFU, FAHD1 / Fold change vs veh, FAHD1 / RFU, BDP1 / Fold change vs veh, BDP1 / RFU, LRRCC1 / Fold change vs veh, LRRCC1 / RFU, ARID1A / Fold change vs veh, ARID1A / RFU, ZNF146 / Fold change vs veh, ZNF146 / RFU, ZNF330 / Fold change vs veh, ZNF330 / RFU, GPN3 / Fold change vs veh, GPN3 / RFU, C9orf123 / Fold change vs veh, C9orf123 / RFU, N4BP2L2 / Fold change vs veh, N4BP2L2 / RFU, ARFIP1 / Fold change vs veh, ARFIP1 / RFU, FAM179B / Fold change vs veh, FAM179B / RFU, BCL10 / Fold change vs veh, BCL10 / RFU, UHRF1BP1L / Fold change vs veh, UHRF1BP1L / RFU, BET1 / Fold change vs veh, BET1 / RFU, CNOT2 / Fold change vs veh, CNOT2 / RFU, ZNF268 / Fold change vs veh, ZNF268 / Fold change vs veh, ZNF507 / RFU, DGCR2 / Fold change vs veh, DGCR2 / RFU, WDSUB1 / Fold change vs veh, WDSUB1 / Fold change vs veh, HSP90B1 /// MIR3652 / RFU, ADSS / Fold change vs veh, ADSS / RFU, GK / Fold change vs veh, GK / RFU, ZNF148 / Fold change vs veh, ZNF148 / RFU, TAF9 / Fold change vs veh, TAF9 / RFU, SLC1A5 / Fold change vs veh, SLC1A5 / RFU, SLMO2 / Fold change vs veh, SLMO2 / RFU, ABCC4 / Fold change vs veh, ABCC4 / RFU, LOC101060439 /// RAP1B / Fold change vs veh, LOC101060439 /// RAP1B / RFU, RFX7 / Fold change vs veh, RFX7 / RFU, GTPBP10 / Fold change vs veh, GTPBP10 / RFU, CNEP1R1 / Fold change vs veh, CNEP1R1 / RFU, BIVM-ERCC5 /// ERCC5 / Fold change vs veh, BIVM-ERCC5 /// ERCC5 / RFU, ILF3 / Fold change vs veh, ILF3 / RFU 11762660_at / Fold change /veh 11762660_at / RFU VCAN (11757783_s_at) / Fold change /veh VCAN (11757783_s_at) / RFU DDX43 (11728927_at) / Fold change /veh DDX43 (11728927_at) / RFU KRT8 (11758188_x_at) / Fold change /veh KRT8 (11758188_x_at) / RFU NKD1 (11759106_at) / Fold change /veh NKD1 (11759106_at) / RFU SRD5A1 (11742802_a_at) / Fold change /veh SRD5A1 (11742802_a_at) / RFU TPSAB1 /// TPSB2 (11721975_s_at) / Fold change /veh TPSAB1 /// TPSB2 (11721975_s_at) / RFU GSTM3 (11746129_a_at) / Fold change /veh GSTM3 (11746129_a_at) / RFU IL23R (11737362_x_at) / Fold change /veh IL23R (11737362_x_at) / RFU TMEM51 (11727254_a_at) / Fold change /veh TMEM51 (11727254_a_at) / RFU PIWIL2 (11732686_x_at) / Fold change /veh PIWIL2 (11732686_x_at) / RFU ORM1 (11744905_x_at) / Fold change /veh ORM1 (11744905_x_at) / RFU CCDC152 (11743942_at) / Fold change /veh CCDC152 (11743942_at) / RFU ECM1 (11717891_a_at) / Fold change /veh ECM1 (11717891_a_at) / RFU IL23R (11748794_a_at) / Fold change /veh IL23R (11748794_a_at) / RFU TNFAIP8L3 (11732012_x_at) / Fold change /veh TNFAIP8L3 (11732012_x_at) / RFU MBOAT4 (11741988_at) / Fold change /veh MBOAT4 (11741988_at) / RFU 11764193_at / Fold change /veh 11764193_at / RFU TMEM53 (11763286_at) / Fold change /veh TMEM53 (11763286_at) / RFU MAGEB2 (11727129_at) / Fold change /veh MAGEB2 (11727129_at) / RFU TMEM200A (11744735_a_at) / Fold change /veh TMEM200A (11744735_a_at) / RFU CCDC152 (11751479_a_at) / Fold change /veh CCDC152 (11751479_a_at) / RFU FAM211A (11726209_a_at) / Fold change /veh FAM211A (11726209_a_at) / RFU RGS16 (11746705_a_at) / Fold change /veh RGS16 (11746705_a_at) / RFU VCAN (11755009_s_at) / Fold change /veh VCAN (11755009_s_at) / RFU RHOB (11743442_s_at) / Fold change /veh RHOB (11743442_s_at) / RFU RGS16 (11720943_a_at) / Fold change /veh RGS16 (11720943_a_at) / RFU RGS16 (11720944_at) / Fold change /veh RGS16 (11720944_at) / RFU, VPS4B / Fold change vs veh, VPS4B / RFU, CREB1 / Fold change vs veh, CREB1 / RFU, DNAJC13 / Fold change vs veh, DNAJC13 / RFU, GNAQ / Fold change vs veh, GNAQ / RFU, CDK5R1 / Fold change vs veh, CDK5R1 / RFU, ZRANB3 / Fold change vs veh, ZRANB3 / RFU, CUL4A / Fold change vs veh, CUL4A / RFU, CCNY / Fold change vs veh, CCNY / RFU, UFL1 / Fold change vs veh, UFL1 / RFU, COG3 / Fold change vs veh, COG3 / RFU, DIAPH2 / Fold change vs veh, DIAPH2 / RFU, SKA2 / Fold change vs veh, SKA2 / RFU, AFF3 / Fold change vs veh, AFF3 / RFU, LMF1 / Fold change vs veh, LMF1 / RFU, IPO11 / Fold change vs veh, IPO11 / RFU, DFFB / Fold change vs veh, DFFB / RFU, FOXP1 / Fold change vs veh, FOXP1 / RFU, CARD8 / Fold change vs veh, CARD8 / RFU, STRN3 / Fold change vs veh, STRN3 / RFU, ADK / Fold change vs veh, ADK / RFU, RASSF2 / Fold change vs veh, RASSF2 / RFU, WIPF1 / Fold change vs veh, WIPF1 / RFU, LARP1B / Fold change vs veh, LARP1B / RFU, RASA1 / Fold change vs veh, RASA1 / RFU, RB1 / Fold change vs veh, RB1 / RFU, PPFIA1 / Fold change vs veh, PPFIA1 / RFU, MAT2A / Fold change vs veh, MAT2A / RFU, CCT5 / Fold change vs veh, CCT5 / RFU, WDR92 / Fold change vs veh, WDR92 / RFU, CUX1 / Fold change vs veh, CUX1 / RFU, TTC7A / Fold change vs veh, TTC7A / RFU, TMEM135 / Fold change vs veh, TMEM135 / RFU, DEPTOR / Fold change vs veh, DEPTOR / RFU, CPM / Fold change vs veh, CPM / RFU, DNAJB6 / Fold change vs veh, DNAJB6 / RFU, CACNA2D3 / Fold change vs veh, CACNA2D3 / RFU, DTX4 / Fold change vs veh, DTX4 / RFU, TFCP2 / Fold change vs veh, TFCP2 / RFU, GMCL1 /// GMCL1P1 / Fold change vs veh, GMCL1 /// GMCL1P1 / RFU, AEBP2 / Fold change vs veh, AEBP2 / RFU, SNHG1 /// SNORD22 /// SNORD25 /// SNORD26 /// SNORD27 /// SNORD28 /// SNORD29 /// SNORD31 / Fold change vs veh, SNHG1 /// SNORD22 /// SNORD25 /// SNORD26 /// SNORD27 /// SNORD28 /// SNORD29 /// SNORD31 / Fold change (Aza/veh), C12orf56 (ProbeSet 11735607_a_at) / Fold change (ACY-1035/veh), C12orf56 (ProbeSet 11735607_a_at) / Fold change (Aza/veh), FGFR1OP (ProbeSet 11751329_s_at) / Fold change (ACY-1035/veh), FGFR1OP (ProbeSet 11751329_s_at) / Fold change (Aza/veh), VPS36 (ProbeSet 11739960_a_at) / Fold change (ACY-1035/veh), VPS36 (ProbeSet 11739960_a_at) / RFU SYPL1 (11715823_x_at) / Fold change /veh SYPL1 (11715823_x_at) / RFU IGFBP7 (11715501_s_at) / Fold change /veh IGFBP7 (11715501_s_at) / RFU REEP3 (11722064_at) / Fold change /veh REEP3 (11722064_at) / RFU IGLL1 (11728026_x_at) / Fold change /veh IGLL1 (11728026_x_at): dose or concentration left out as unconfirmed
Conditions: ProbeSet 11719185_x_at; LIST B

## Nc1ncn([C@@H]2O[C@H](CO)[C@@H](O)[C@H]2O)c(=O)n1 [azacitidine]
  RFU, N4BP2L2: 91.08 RFU
